For one assay, the target named is T1, ROCK1 (Homo sapiens, UniProt Q13464).
T1 construct: purchased Upstate/Chemicon 14-601
Nature of the assay: Rho kinase inhibition assay (IMAP fluorescence polarization), ROCK1.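 Note: kinase reaction run 60 min at room temperature, then phosphorylated substrate captured on IMAP beads for 30 min, with fluorescence polarization read in mP.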 Particulars: Avg, 10 μM ATP. The assay is classed as biochemical. For orientation: Fluorescence polarisation rises when a labelled molecule tumbles more slowly, as on binding a larger partner.

Another assay has as its target T2, ROCK2 (Homo sapiens, UniProt O75116).
T2 construct: purchased Upstate/Chemicon 14-451
In words: Rho kinase inhibition assay (IMAP fluorescence polarization), ROCK2.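 Note: kinase reaction started with 10 µM ATP and run 60 min at room temperature, then phosphorylated substrate captured on IMAP beads for 30 min and fluorescence polarization read in mP.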 It counts as biochemical. As to conditions: 10 μM ATP; read-out: ROCK2 Ki, Avg.

T2 sequence (O75116 11-552 limits assumed): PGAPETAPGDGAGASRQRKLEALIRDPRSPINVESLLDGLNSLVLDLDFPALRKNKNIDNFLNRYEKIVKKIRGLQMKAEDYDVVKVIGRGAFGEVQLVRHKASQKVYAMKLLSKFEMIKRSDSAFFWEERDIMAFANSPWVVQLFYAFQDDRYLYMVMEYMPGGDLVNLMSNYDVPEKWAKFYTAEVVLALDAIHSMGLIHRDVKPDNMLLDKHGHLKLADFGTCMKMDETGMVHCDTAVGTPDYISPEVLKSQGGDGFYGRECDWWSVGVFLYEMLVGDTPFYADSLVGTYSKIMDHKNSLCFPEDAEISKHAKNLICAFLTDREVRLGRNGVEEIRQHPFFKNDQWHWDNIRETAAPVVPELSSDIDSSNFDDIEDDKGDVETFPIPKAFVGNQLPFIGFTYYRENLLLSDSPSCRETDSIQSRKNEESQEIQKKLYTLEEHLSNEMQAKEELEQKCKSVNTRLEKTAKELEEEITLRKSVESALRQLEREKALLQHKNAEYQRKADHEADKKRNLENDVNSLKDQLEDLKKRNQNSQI
T1 sequence (Q13464 17-535 limits assumed): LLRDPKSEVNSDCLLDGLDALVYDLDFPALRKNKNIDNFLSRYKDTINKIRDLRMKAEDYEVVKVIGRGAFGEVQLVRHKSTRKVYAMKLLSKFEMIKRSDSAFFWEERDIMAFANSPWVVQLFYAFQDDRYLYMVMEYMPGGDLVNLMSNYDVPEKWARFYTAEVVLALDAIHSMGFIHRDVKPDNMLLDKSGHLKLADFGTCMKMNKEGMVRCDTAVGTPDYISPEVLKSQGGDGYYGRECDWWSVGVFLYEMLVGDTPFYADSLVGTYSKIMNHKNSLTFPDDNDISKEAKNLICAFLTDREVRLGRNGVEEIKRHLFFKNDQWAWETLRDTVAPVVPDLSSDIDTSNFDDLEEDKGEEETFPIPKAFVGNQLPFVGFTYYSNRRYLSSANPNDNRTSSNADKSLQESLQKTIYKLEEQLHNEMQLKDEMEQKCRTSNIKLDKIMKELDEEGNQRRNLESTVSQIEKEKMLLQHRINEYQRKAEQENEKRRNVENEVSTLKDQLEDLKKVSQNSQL
Procedure for ROCK1: (§1) Following the pre-incubation, 10 μM ATP was added to initiate the reaction. After 60 minutes at room temperature, Molecular Devices IMAP™ binding solution was added to bind phosphorylated substrate. After 30 minutes of incubation in the presence of the IMAP™ beads, the fluorescence polarization was read and the ratio was reported as mP. IC50 values for compounds and EC50 values for ATP were calculated using the Prism software from Graphpad.
Procedure for ROCK2: as §1

The term Ki denotes the equilibrium dissociation constant of an inhibitor or competing ligand from its target. For `CN(c1cccc(CN2CCC[C@H](Nc3ccc4[nH]ncc4c3)C2)c1)S(C)(=O)=O` [Compound 1.198, (S)-N-(3-((3-(1H-indazol-5-ylamino)piperidin-1-yl)methyl)phenyl)-N-methylmethanesulfonamide], the inhibition constant (Ki) at ROCK1 worked out at 585 nM; at ROCK2, 24.7 nM.

In the case of `CC(C)(C)OC(=O)NCc1ccc(CN2CCC[C@H](Nc3ccc4[nH]ncc4c3)C2)cc1` [Compound 1.199, (S)-tert-butyl 4-((3-(1H-indazol-5-ylamino)piperidin-1-yl)methyl)benzylcarbamate], the figures for the Ki at ROCK1 and at ROCK2 were 1860 nM and 213 nM, respectively.

For the molecule `NCc1ccc(CN2CCC[C@H](Nc3ccc4[nH]ncc4c3)C2)cc1` [Compound 1.201, (S)-N-(1-(4-(aminomethyl)benzyl)piperidin-3-yl)-1H-indazol-5-amine], the results for the Ki at ROCK1 and on ROCK2 were 1590 nM and 230 nM, respectively.

Take `c1cc(CN2CCC[C@@H](Nc3ccc4[nH]ncc4c3)C2)cc(C2CC2)c1` [Compound 1.202, (R)-N-(1-(3-cyclopropylbenzyl)piperidin-3-yl)-1H-indazol-5-amine]: the Ki on ROCK1 is 203 nM; on ROCK2 it was 33 nM.

For the molecule `CCOc1cccc(CN2CCC[C@@H](Nc3ccc4[nH]ncc4c3)C2)c1` [Compound 1.203, (R)-N-(1-(3-ethoxybenzyl)piperidin-3-yl)-1H-indazol-5-amine], the Ki at ROCK1 worked out at 329 nM; on ROCK2, 41.6 nM.

Turning to `CS(=O)(=O)c1ccc(CN2CCC[C@@H](Nc3ccc4[nH]ncc4c3)C2)cc1` [Compound 1.205, (R)-N-(1-(4-(methylsulfonyl)benzyl)piperidin-3-yl)-1H-indazol-5-amine], the Ki at ROCK1 is 498 nM; at ROCK2, 46.4 nM.

Turning to `CN(c1cccc(CN2CCC[C@@H](Nc3ccc4[nH]ncc4c3)C2)c1)S(C)(=O)=O` [Compound 1.207, (R)-N-(3-((3-(1H-indazol-5-ylamino)piperidin-1-yl)methyl)phenyl)-N-methylmethanesulfonamide], the Ki at ROCK1 is 516 nM; on ROCK2, 43.7 nM.

With `CCOC(=O)c1ccc(CN2CCC[C@@H](Nc3ccc4[nH]ncc4c3)C2)cc1` [Compound 1.209, (R)-ethyl 4-((3-(1H-indazol-5-ylamino)piperidin-1-yl)methyl)benzoate], the Ki on ROCK1 turned out to be 4590 nM; at ROCK2 it was 470 nM.

As to `Brc1cccc(CN2CCC[C@@H](Nc3ccc4[nH]ncc4c3)C2)c1` [Compound 1.210, (R)-N-(1-(3-bromobenzyl)piperidin-3-yl)-1H-indazol-5-amine], the Ki at ROCK1 amounted to 95.1 nM; on ROCK2, 25.5 nM.

Regarding `CC(=O)NCCOc1cccc(CN2CCC[C@@H](Nc3ccc4[nH]ncc4c3)C2)c1` [Compound 1.211, (R)-N-(2-(3-((3-(1H-indazol-5-ylamino)piperidin-1-yl)methyl)phenoxy)ethyl)acetamide], the Ki on ROCK1 turned out to be 395 nM; on ROCK2 it was 57.6 nM.

For the molecule `CC1(C)OC[C@H](COc2cccc(CN3CCC[C@H](Nc4ccc5[nH]ncc5c4)C3)c2)O1` [Compound 1.214, N-((S)-1-(3-(((S)-2,2-dimethyl-1,3-dioxolan-4-yl)methoxy)benzyl)piperidin-3-yl)-1H-indazol-5-amine], the Ki on ROCK1 is 546 nM; on ROCK2 it was 143 nM.

Take `CCOC(=O)c1ccc(CN2CCC[C@H](Nc3ccc4[nH]ncc4c3)C2)cc1` [Compound 1.216, (S)-ethyl 4-((3-(1H-indazol-5-ylamino)piperidin-1-yl)methyl)benzoate]: the inhibition constant Ki at ROCK1 amounted to 1890 nM; at ROCK2 it was 403 nM.

For the molecule `CC(=O)NCCOc1cccc(CN2CCC[C@H](Nc3ccc4[nH]ncc4c3)C2)c1` [Compound 1.218, (S)-N-(2-(3-((3-(1H-indazol-5-ylamino)piperidin-1-yl)methyl)phenoxy)ethyl)acetamide], the Ki at ROCK1 came to 402 nM; at ROCK2, 30.7 nM.

With `NC(=O)c1cccc(CN2CCC[C@@H](Nc3ccc4[nH]ncc4c3)C2)c1` [Compound 1.221, (R)-3-((3-(1H-indazol-5-ylamino)piperidin-1-yl)methyl)benzamide], the values for the Ki on ROCK1 and on ROCK2 were 264 nM and 30 nM, respectively.

`CC1(C)OC[C@H](COc2cccc(CN3CCC[C@@H](Nc4ccc5[nH]ncc5c4)C3)c2)O1` [Compound 1.222, N-((R)-1-(3-(((S)-2,2-dimethyl-1,3-dioxolan-4-yl)methoxy)benzyl)piperidin-3-yl)-1H-indazol-5-amine]: the Ki on ROCK1 was found to be 229 nM; on ROCK2, 75.5 nM.

On to `O=C(OCCOc1cccc(CN2CCC[C@H](Nc3ccc4[nH]ncc4c3)C2)c1)c1ccccc1` [Compound 1.224, (S)-2-(3-((3-(1H-indazol-5-ylamino)piperidin-1-yl)methyl)phenoxy)ethyl benzoate], for which the Ki at ROCK1 stood at 487 nM; on ROCK2, 77.5 nM.

`O=C(OCCOc1cccc(CN2CCC[C@@H](Nc3ccc4[nH]ncc4c3)C2)c1)c1ccccc1` [Compound 1.225, (R)-2-(3-((3-(1H-indazol-5-ylamino)piperidin-1-yl)methyl)phenoxy)ethyl benzoate]: the results for the inhibitory constant (Ki) on ROCK1 and at ROCK2 were 605 nM and 189 nM, respectively.

As to `OCCOc1ccc(CN2CCC[C@H](Nc3ccc4[nH]ncc4c3)C2)cc1` [Compound 1.228], the figures for the Ki on ROCK1 and at ROCK2 were 1880 nM and 140 nM, respectively.

In the case of `OCCCOc1cccc(CN2CCC[C@H](Nc3ccc4[nH]ncc4c3)C2)c1` [Compound 1.230, (S)-3-(3-((3-(1H-indazol-5-ylamino)piperidin-1-yl)methyl)phenoxy)propan-1-ol], the values for the Ki at ROCK1 and on ROCK2 were 346 nM and 35.3 nM, respectively.

In the case of `OCCCOc1cccc(CN2CCC[C@@H](Nc3ccc4[nH]ncc4c3)C2)c1` [Compound 1.231, (R)-3-(3-((3-(1H-indazol-5-ylamino)piperidin-1-yl)methyl)phenoxy)propan-1-ol], the Ki on ROCK1 amounted to 305 nM; at ROCK2 it was 60.3 nM.

As for `OCc1ccc(CN2CCC[C@@H](Nc3ccc4[nH]ncc4c3)C2)cc1` [Compound 1.232, (R)-(4-((3-(1H-indazol-5-ylamino)piperidin-1-yl)methyl)phenyl)methanol], the results for the Ki at ROCK1 and at ROCK2 were 137 nM and 20.8 nM, respectively.

As to `COc1ccc(CN2CCC[C@H](Nc3ccc4[nH]ncc4c3)C2)cc1NS(C)(=O)=O` [Compound 1.234, (S)-N-(5-((3-(1H-indazol-5-ylamino)piperidin-1-yl)methyl)-2-methoxyphenyl)methanesulfonamide], the inhibition constant (Ki) at ROCK1 is 1740 nM; at ROCK2, 166 nM.

For `NCc1cccc(CN2CCC[C@@H](Nc3ccc4[nH]ncc4c3)C2)c1` [Compound 1.235, (R)-N-(1-(3-(aminomethyl)benzyl)piperidin-3-yl)-1H-indazol-5-amine], the Ki on ROCK1 turned out to be 1390 nM; at ROCK2 it was 335 nM.

For the molecule `Cc1ccc(CN2CCC[C@H](Nc3ccc4[nH]ncc4c3)C2)cc1OCC(=O)O` [Compound 1.240], the values for the Ki at ROCK1 and on ROCK2 were 625 nM and 60.1 nM, respectively.

On to `Cc1ccc(CN2CC[C@@H](Nc3ccc4[nH]ncc4c3)C2)cc1` [Compound 1.242, (R)-N-(1-(4-methylbenzyl)pyrrolidin-3-yl)-1H-indazol-5-amine], for which the Ki was determined as 71.4 nM at ROCK1 and 17.5 nM at ROCK2.

As for `FC(F)(F)c1cccc(CN2CC[C@@H](Nc3ccc4[nH]ncc4c3)C2)c1` [Compound 1.243, (R)-N-(1-(3-(trifluoromethyl)benzyl)pyrrolidin-3-yl)-1H-indazol-5-amine], the inhibitory constant (Ki) was determined as 219 nM on ROCK1 and 84.3 nM on ROCK2.

Take `CS(=O)(=O)c1ccc(CN2CC[C@@H](Nc3ccc4[nH]ncc4c3)C2)cc1` [Compound 1.244, (R)-N-(1-(4-(methylsulfonyl)benzyl)pyrrolidin-3-yl)-1H-indazol-5-amine]: the inhibition constant (Ki) at ROCK1 was determined as 683 nM; on ROCK2, 139 nM.

As to `COc1ccc(CN2CC[C@@H](Nc3ccc4[nH]ncc4c3)C2)cc1` [Compound 1.245, (R)-N-(1-(4-methoxybenzyl)pyrrolidin-3-yl)-1H-indazol-5-amine], the Ki at ROCK1 worked out at 199 nM; at ROCK2, 49.5 nM.

In the case of `c1cc(N2CCCC2)ccc1CN1CCC[C@@H](Nc2ccc3[nH]ncc3c2)C1` [Compound 1.248, (R)-N-(1-(4-(pyrrolidin-1-yl)benzyl)piperidin-3-yl)-1H-indazol-5-amine], the Ki at ROCK1 turned out to be 2350 nM; at ROCK2 it was 891 nM.

`c1cc(CN2CCC[C@@H](Nc3ccc4[nH]ncc4c3)C2)cc(-c2ccco2)c1` [Compound 1.250, (R)-N-(1-(3-(furan-2-yl)benzyl)piperidin-3-yl)-1H-indazol-5-amine]: the Ki was found to be 247 nM at ROCK1 and 45.8 nM on ROCK2.

`CC(CN1CCC[C@@H](Nc2ccc3[nH]ncc3c2)C1)c1ccccc1` (stereo partly drawn) [Compound 1.251, N-((3R)-1-(2-phenylpropyl)piperidin-3-yl)-1H-indazol-5-amine]: the inhibition constant Ki at ROCK1 turned out to be 207 nM; on ROCK2 it was 49.2 nM.

As to `Clc1ccc(CN2CC[C@@H](Nc3ccc4[nH]ncc4c3)C2)cc1Cl` [Compound 1.254, (R)-N-(1-(3,4-dichlorobenzyl)pyrrolidin-3-yl)-1H-indazol-5-amine], the Ki is 116 nM at ROCK1 and 39 nM at ROCK2.

As to `c1cn(-c2ccc(CN3CCC[C@H](Nc4ccc5[nH]ncc5c4)C3)cc2)cn1` [Compound 1.255], the inhibitory constant (Ki) at ROCK1 is 3560 nM; at ROCK2, 359 nM.

With `c1c[nH]c(CN2CCC[C@H](Nc3ccc4[nH]ncc4c3)C2)n1` [Compound 1.256, (S)-N-(1-((1H-imidazol-2-yl)methyl)piperidin-3-yl)-1H-indazol-5-amine], the figures for the Ki at ROCK1 and on ROCK2 were 700 nM and 85.5 nM, respectively.

`Cn1ccnc1CN1CCC[C@H](Nc2ccc3[nH]ncc3c2)C1` [Compound 1.257, (S)-N-(1-((1-methyl-1H-imidazol-2-yl)methyl)piperidin-3-yl)-1H-indazol-5-amine]: the Ki at ROCK1 turned out to be 1270 nM; on ROCK2 it was 168 nM.

In the case of `c1ccc(Cn2ccnc2CN2CCC[C@@H](Nc3ccc4[nH]ncc4c3)C2)cc1` [Compound 1.263, (R)-N-(1-((1-benzyl-1H-imidazol-2-yl)methyl)piperidin-3-yl)-1H-indazol-5-amine], the Ki came out at 2130 nM at ROCK1 and 453 nM on ROCK2.

The record behind these values is US20090325959A1 (priority 2008, published 2009).
